Source: patent publication US11981750B2 (priority 2016, dated 2024)
Starred links: 1 amine or outer side, 2 acyl side, 3 side chain; linkers in the order of their positions; H or OH if unused. Non-standard residues stand in square brackets, D forms with d. Residues, ends and D or L forms follow the SMILES beside them. *: point of attachment. TtdDga = O=C(COCC(=O)[*:2])NCCCOCCOCCOCCCN[*:1]; Arachidoyl = CCCCCCCCCCCCCCCCCCCC(=O)*; NMeV = CN[CH](C(=O)O)C(C)C

Experiments:
[1] = tested on: anti-Map antibodies in sera from bovine infected by Map; test: Antibody ELISA with bovine sera (Map-infected versus healthy controls); type: binding; settings: for ROC analysis of ELISA antibody response, area under the curve: 60 MAP+ bovine sera and 53 control sera
[2] = tested on: PBMCs isolated from cows naturally infected with Map; test: Flow cytometry of CD25+ T and B cells after PBMC stimulation with lipopeptides; type: cell-based, cattle
[3] = tested on: sera of animals infected by M. bovis; type: binding, bovine; settings: serial twofold dilution of sera
[4] = tested on: sheep sera naturally or experimentally infected with S-type strains of Map; test: Antibody ELISA with sheep sera infected with S-type strains of Map; type: binding; settings: control n=15, positive n=39
[5] = physchem; settings: organic solvents (DMSO, CHCl3, CH2Cl2, MeOH and EtOH)
[6] = tested on: PBMCs isolated from control cows and cows naturally infected with Map; test: Cytokine secretion by PBMCs after 24-hour stimulation with Map lipopeptides; type: cell-based, cattle; settings: 1, 5, 10 μg/ml
Experimental: Peripheral blood mononuclear cells (PBMCs) were isolated from control non-infected (n=4) and cattle naturally infected with C-type Map (n=4) to determine if lipoproteins, L3P and L5P (structures disclosed in FIG. 9), can elicit immunological responses. Sixty ml of blood was collected via jugular venipuncture into a syringe containing 2× acid-citrate-dextrose to obtain PBMCs.
PBMCs were resuspended at a final concentration of 8×10^6/ml in complete medium consisting of RPMI-1640 with 2 mM 1-glutamine and 25 mM HEPES (Gibco, Grand Island, NY) and supplemented with 10% fetal calf serum (Gibco), 100λ penicillin-streptomycin (Gibco). Cells were plated in 24-well culture plates and incubated for 24 hr at 39° C. in 5% CO2 in a humidified atmosphere with the following treatment groups, nonstimulated (NS; negative control), pokeweed mitogen (PWM, 10 μg/ml, positive control; Sigma, St. Louis, MO), and four antigens that included whole cell sonicated extracts of Map strains K-10 and S397 (10 μg/ml); lipoproteins L3P and L5P (1, 5, 10 μg/ml concentrations). The lipoproteins had to be solubilized in 100% methanol to 1 mg/ml concentrations and then diluted in the complete medium to final concentrations indicated above. […] After a 24-hr stimulation, the supernatants were harvested by centrifugation at 400×g for 5 min. Supernatants were removed without disturbing the cells in culture and stored at −20° C. until cytokine measurement. Cytokines IFN-γ, IL-1, IL-2, IL-4, IL-6 and TNF-α were all measured using Ciraplex bovine multiplex cytokine arrays (Aushon Biosystems, Billerica, MA).

[7] = PBMCs from infected cows, lipopeptide 1, 5, 10 μg/ml

SMILES	ROC analysis of ELISA antibody response, area under the curve ([1]; antigen in PBS)	ROC analysis of ELISA antibody response, area under the curve ([1]; antigen in ethanol)	CD25+ B cells response [2, 7]	proliferation of CD25+ CD8 T cells [2, 7]	CD25+ CD4 or CD25+ γδ T cell populations, difference between L3P and L5P ([2]; data not shown)	solubility in water or aqueous buffers	cross-reaction with sera of animals infected by M. bovis [3]	immunodetection of L5P by sheep sera (anti-L5P antibodies) [4]	solubility [5]	effect of lipopeptide concentration on TNF-α secretion by PBMCs ([6]; P<0.0006)	IFN-γ cytokine response ([6]; 24-hr stimulation)	IL-1β cytokine response ([6]; 24-hr stimulation)	TNF-α cytokine response ([6]; 24-hr stimulation)	ELISA antibody response against the lipid moiety of L5P, discrimination of control from infected animals ([1]; lipid solubilized in ethanol, bovine sera)
CCC(C)C(NC(=O)C(C(C)C)N(C)C(=O)C(N)Cc1ccccc1)C(=O)NC(Cc1ccccc1)C(=O)NC(C)C(=O)NCCCOCCOCCOCCCNC(=O)COCC(=O)O (stereo not drawn) [L5P^H2O] (H-F[NMeV]IFA-TtdDga; configuration not given here)	0.9453	0.9313												
CCCCCCCCCCCCCCCCCCCC(=O)N[C@H](Cc1ccccc1)C(=O)N(C)[C@H](C(=O)N[C@H](C(=O)N[C@@H](Cc1ccccc1)C(=O)N[C@@H](C)C(=O)OC)[C@@H](C)CC)C(C)C [L5P] (Arachidoyl-[dF][NMeV]IFA-OMe)		0.97	stronger response compared to L3P	remained static	No significant differences	insoluble	does not cross-react	less than half of the sheep sera do not appear to contain anti-L5P antibodies	< 1000 µg/mL	dose-dependent effect	elicited cytokine responses	elicited cytokine responses	elicited cytokine responses	
CCCCCCCCCCCCCCCCCCCC(=O)O [lipid moiety, eicosanoic acid]														does not discriminate control from infected animals
